Publication PMC9609330

Legend:
[1] = test system: AT11-L2 (DNA, G4) TGGTGGTGGTTGTTGTTGGTGGTGGTGGT; assay: CD melting; details: K+ 100 mM, 10 mM lithium cacodylate pH 7.2, 10 µM DNA, 2.0 eq. ligand (20 µM)
[2] = test system: 5′-Cy5-AT11-L2 (DNA, G4) TGGTGGTGGTTGTTGTTGGTGGTGGTGGT; assay: fluorescence titration (Cy5 quenching), Michaelis–Menten fit; details: K+ 100 mM; 10 mM lithium cacodylate; 1 µM DNA; apparent KD
[3] = test system: 5′-Cy5-AT11-L2 (DNA, G4) TGGTGGTGGTTGTTGTTGGTGGTGGTGGT; assay: fluorescence titration (Cy5 quenching), Hill fit; details: K+ 100 mM, 10 mM lithium cacodylate, 1 µM DNA, apparent KD
[4] = biological target: T1, nucleolin RBD1,2 (NCL RBD1,2) (UniProt P19338 307-466); assay: fluorescence titration; TMPyP4 (pre-formed complex; TMPyP4 excess disrupts the G4); Oligonucleotide annealed in 10 mM lithium cacodylate pH 7.2, 100 mM KCl (95 °C 10 min, then ice 10 min); titration temperature not given in the material; details: protein: recombinant; label: 5'-Cy5; intramolecular G4, parallel in 100 mM KCl
T1 sequence (P19338 307-466): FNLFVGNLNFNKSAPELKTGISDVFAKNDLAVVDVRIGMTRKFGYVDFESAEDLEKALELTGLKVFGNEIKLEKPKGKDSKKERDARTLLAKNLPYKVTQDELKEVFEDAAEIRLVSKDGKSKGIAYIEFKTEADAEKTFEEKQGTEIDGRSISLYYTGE

[5] = biological target: T1, nucleolin RBD1,2 (NCL RBD1,2); assay: fluorescence titration; PhenDC3 (pre-formed G4/ligand complex); Oligonucleotide annealed in 10 mM lithium cacodylate pH 7.2, 100 mM KCl (95 °C 10 min, then ice 10 min); titration temperature not given in the material; details: protein: recombinant; label: 5'-Cy5; intramolecular G4, parallel in 100 mM KCl
[6] = biological target: T1, nucleolin RBD1,2 (NCL RBD1,2); assay: fluorescence titration; BRACO-19 (pre-formed G4/ligand complex); Oligonucleotide annealed in 10 mM lithium cacodylate pH 7.2, 100 mM KCl (95 °C 10 min, then ice 10 min); titration temperature not given in the material; details: protein: recombinant; label: 5'-Cy5; intramolecular G4, parallel in 100 mM KCl
[7] = biological target: T1, nucleolin RBD1,2 (NCL RBD1,2); assay: fluorescence titration; 360A (pre-formed G4/ligand complex); Oligonucleotide annealed in 10 mM lithium cacodylate pH 7.2, 100 mM KCl (95 °C 10 min, then ice 10 min); titration temperature not given in the material; details: protein: recombinant; label: 5'-Cy5; intramolecular G4, parallel in 100 mM KCl
[8] = biological target: T1, nucleolin RBD1,2 (NCL RBD1,2); assay: fluorescence titration; PDS (pre-formed G4/ligand complex); Oligonucleotide annealed in 10 mM lithium cacodylate pH 7.2, 100 mM KCl (95 °C 10 min, then ice 10 min); titration temperature not given in the material; details: protein: recombinant; label: 5'-Cy5; intramolecular G4, parallel in 100 mM KCl

Which results are given for NCCOc1cc(C(=O)Nc2cc(OCCN)c3ccccc3n2)nc(C(=O)Nc2cc(OCCN)c3ccccc3n2)c1?
ΔTm [1]: 1.8 °C; KD [2]: 14 ± 4.9 nM

For C[n+]1cc(NC(=O)c2ccc3ccc4ccc(C(=O)Nc5cc6ccccc6[n+](C)c5)nc4c3n2)cc2ccccc21, which KD ([3]; Hill n = 2.2) is on record?
Its KD is 1400 ± 85 nM.

What about the ΔTm [1] of the same molecule?
The ΔTm was 14.9 °C.

How did the KD ([3]; Hill n = 1.2) turn out when C[n+]1ccc(-c2c3nc(c(-c4cc[n+](C)cc4)c4ccc([nH]4)c(-c4cc[n+](C)cc4)c4nc(c(-c5cc[n+](C)cc5)c5ccc2[nH]5)C=C4)C=C3)cc1 was run?
Its KD is 1300 ± 150 nM.

What about the ΔTm ([1]; unfolds G4 at 3.5 eq.) of the same molecule?
Its ΔTm is 22.9 °C.

How did the KD ([3]; Hill n = 0.9) turn out when CN(C)c1ccc(Nc2c3ccc(NC(=O)CCN4CCCC4)cc3nc3cc(NC(=O)CCN4CCCC4)ccc23)cc1 was run?
The KD was 5600 ± 2000 nM.

What about the ΔTm [1] of the same molecule?
The ΔTm was 22.5 °C.

What does the source list for C[n+]1cc(NC(=O)c2cccc(C(=O)Nc3cc4ccccc4[n+](C)c3)n2)cc2ccccc21?
KD ([3]; Hill n = 0.6): 31000 ± 60000 nM; ΔTm [1]: 6.5 °C

TGGTGGTGGTTGTTGTTGGTGGTGGTGGT (structured_DNA) [5'-Cy5-AT11-L2 G4] was tested. Which Kd [4] did it give?
Its Kd is 1.2 nM.

What about the Kd [5] of the same molecule?
The Kd was 18 nM.

And the Kd [6]?
The Kd was 150 nM.

What about the Kd [7] of the same molecule?
Its Kd is 6400 nM.

And the Kd [8]?
Its Kd is 63 nM.
